Read-outs that look alike come from different tables or passages of the source.
Columns and labels:
[1] = target: T1, human ETA receptors (Homo sapiens, UniProt P25101); experiment: Binding Test #1: inhibition of 125I-ET-1 binding to ETA receptors (TE 671 cell membranes)
T1 construct: endogenous in cells; host or cells: TE 671 cells (ATCC HTB 139)
T1 sequence (P25101 21-427): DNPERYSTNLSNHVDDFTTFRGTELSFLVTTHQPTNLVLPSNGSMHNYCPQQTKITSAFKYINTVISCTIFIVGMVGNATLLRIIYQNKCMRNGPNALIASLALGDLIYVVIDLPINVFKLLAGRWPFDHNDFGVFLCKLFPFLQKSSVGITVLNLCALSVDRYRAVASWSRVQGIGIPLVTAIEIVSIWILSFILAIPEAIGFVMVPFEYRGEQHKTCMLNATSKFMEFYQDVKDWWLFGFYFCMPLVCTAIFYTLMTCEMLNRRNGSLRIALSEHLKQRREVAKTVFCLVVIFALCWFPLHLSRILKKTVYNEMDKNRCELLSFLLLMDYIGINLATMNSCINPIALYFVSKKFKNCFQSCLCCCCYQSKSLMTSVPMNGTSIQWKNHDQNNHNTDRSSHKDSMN
Excerpt: (§1) Compounds that are potential endothelin antagonists are identified by testing their ability to compete with ^125I-labeled ET-1 for binding to human ETA receptors or ETB receptors present on isolated cell membranes. The effectiveness of the test compound as an antagonist or agonist of the biological tissue response of endothelin can also be assessed by measuring the effect on endothelin induced contraction of isolated rat thoracic aortic rings. The ability of the compounds to act as antagonists or agonists for ETB receptors can be assess by testing the ability of the compounds are to inhibit endothelin-1 induced prostacyclin release from cultured bovine aortic endothelial cells.
A. Endothelin Binding Inhibition—Binding Test #1: Inhibition of Binding to ETA Receptors
TE 671 cells (ATCC Accession No. HTB 139) express ETA receptors. These cells were grown to confluence in T-175 flasks. Cells from multiple flasks were collected by scraping, pooled and centrifuged for 10 min at 190×g. The cells were resuspended in phosphate buffered saline (PBS) containing 10 mM EDTA using a Tenbroeck homogenizer. The suspension was centrifuged at 4° C. at 57,800×g for 15 min, the pellet was resuspended in 5 ml of buffer A (5 mM HEPES buffer, pH 7.4 containing aprotinin (100 KIU/ml)) and then frozen and thawed once. 5 ml of Buffer B (5 mM HEPES Buffer, pH 7.4 containing 10 mM MnCl2 and 0.001% deoxyribonuclease Type 1) was added, the suspension mixed by inversion and then incubated at 37° C. for 30 minutes. The mixture was centrifuged at 57,800×g as described above, the pellet washed twice with buffer A and then resuspended in buffer C (30 mM HEPES buffer, pH 7.4 containing aprotinin (100 KIU/ml) to give a final protein concentration of 2 mg/ml and stored at −70° C. until use.
The membrane suspension was diluted with binding buffer (30 mM HEPES buffer, pH 7.4 containing 150 mM NaCl, 5mM MgCl2, 0.5% Bacitracin) to a concentration of 8 μg/50 μl. ^125I-endothelin-1 (3,000 cpm, […]) was added to 50 μL of either: (A) endothelin-1 (for non specific binding) to give a final concentration 80 nM); (B) binding buffer (for total binding); or (C) a test compound (final concentration 1 nM to 100 μM). The membrane suspension (50 μL), containing up to 8 μg of membrane protein, was added to each of (A), (B), or (C). Mixtures were shaken, and incubated at 4° C. for 16-18 hours, and then centrifuged at […] for 25 min at 2,500×g. Alternatively, the incubation was conducted at 24° C. […] This, must be kept in mind when comparing IC50 concentrations among compounds provided herein.
The supernatant, containing unbound radioactivity, was decanted and the pellet counted on a Genesys multiwell gamma counter. The degree of inhibition of binding (D) was calculated according to the following equation: [formula]
Each test was generally performed in triplicate.

[2] = target: T2, human ETB receptor (Homo sapiens, UniProt P24530); experiment: Binding Test #2: inhibition of 125I-ET-1 binding to ETB receptors (transfected COS7 cell membranes)
T2 construct: expressed in transfected cells; host or cells: COS7 cells
T2 sequence (P24530 27-442): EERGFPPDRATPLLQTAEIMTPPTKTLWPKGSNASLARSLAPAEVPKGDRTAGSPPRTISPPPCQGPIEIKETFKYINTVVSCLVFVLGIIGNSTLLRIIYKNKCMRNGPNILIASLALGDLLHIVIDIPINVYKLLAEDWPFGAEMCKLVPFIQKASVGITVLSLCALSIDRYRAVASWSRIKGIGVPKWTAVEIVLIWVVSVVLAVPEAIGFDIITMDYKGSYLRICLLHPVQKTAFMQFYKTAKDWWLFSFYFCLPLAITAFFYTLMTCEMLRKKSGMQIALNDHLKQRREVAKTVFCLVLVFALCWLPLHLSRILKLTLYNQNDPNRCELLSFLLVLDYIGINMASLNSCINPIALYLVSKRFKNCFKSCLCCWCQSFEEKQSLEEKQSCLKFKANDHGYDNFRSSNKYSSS
Excerpt: as §1
B. Endothelin Binding Inhibition—Binding Test #2: Inhibition of Binding to ETB Receptors
COS7 cells were transfected with DNA encoding the ETB receptor, The resulting cells, which express the human ETB receptor, were grown to confluence in T-150 flasks. Membrane was prepared as described above. The binding assay was performed as described above using the membrane preparation diluted with binding buffer to a concentration of 1 μg/50 μl.
Briefly, the COS7 cells, described above, that had been transfected with DNA encoding the ETB receptor and express the human ETB receptor on their surfaces were grown to confluence in T-1 75 flasks. Cells from multiple flasks were collected by scraping, pooled and centrifuged for 10 min at 190×g. The cells were resuspended in phosphate buffered saline (PBS) containing 10 mM EDTA using a Tenbroeck homogenizer. The suspension was centrifuged at 4° C. 57,800 X g for 15 min, the pellet was resuspended in 5 ml of buffer A (5mM HEPES buffer, pH 7.4 containing aprotinin (100 KIU/ml)) and then frozen and thawed once. Five ml of Buffer B (5 mM HEPES Buffer, pH 7.4 containing 10 mM MnCl2 and 0.001% deoxyribonuclease Type 1) was added, the suspension mixed by inversion and then incubated at 37° C. for 30 minutes. The mixture was centrifuged at 57,800×g as described above, the pellet washed twice with buffer A and then resuspended in buffer C (30 mM HEPES buffer, pH 7.4 containing aprotinin (100 KIU/ml) to give a final protein concentration of 2 mg/ml.
The binding assay was performed as described above using the membrane preparation diluted to give 1 μg/50 μl of binding buffer.

[3] = Table 1, † incubation at 24° C., read-out: ETA
[4] = Table 1, † incubation at 24° C., read-out: ETB
[5] = Table 1, incubation at 4° C., read-out: ETA
[6] = Table 1, incubation at 4° C., read-out: ETB
[7] = Table 2, incubation at 4° C., read-out: ETA
[8] = Table 2, incubation at 4° C., read-out: ETB

Row | IC50 [1, 5] [nM] | IC50 [2, 6] [nM] | SMILES | further results
1 | 69.2 | 290 | Cc1noc(NS(=O)(=O)c2ccsc2NC(=O)Nc2sccc2S(=O)(=O)Nc2onc(C)c2Br)c1Br [N,N′-bis{3-[(4-bromo-3-methyl-5-isoxazolyl)aminosulfonyl)thien-2-yl} urea] | IC50 [1, 3]: 295 nM; IC50 [2, 4]: 1190 nM
2 | 18.2 | ~170000 | Cc1noc(NS(=O)(=O)c2ccsc2C(=O)Nc2ccccc2)c1C [N-(3,4-dimethyl-5-isoxazolyl)-2-(N-phenylaminocarbonyl)thiophene-3-sulfonamide] | –
3 | 2640 | > 100000 | Cc1noc(NS(=O)(=O)c2ccsc2C(=O)O)c1C [N-(3,4-dimethyl-5-isoxazolyl)-2-(carboxyl)thiophene-3-sulfonamide] | –
4 | 2500 | 45500 | COc1ccsc1S(=O)(=O)Nc1onc(C)c1C [N-(3,4-dimethyl-5-isoxazolyl)-3-methoxythiophene-2-sulfonamide] | –
5 | 2550 | 1290 | Cc1noc(NS(=O)(=O)c2ccc(-c3ccccc3)s2)c1C [N-(3,4-dimethyl-5-isoxazolyl-5-phenylthiophen-2-sulfonamide] | –
6 | 11400 | 166 | Cc1noc(NS(=O)(=O)c2cccn2-c2ccc(C(C)C)cc2)c1Br [N-(4-Bromo-3-methyl-5-isoxazolyl)-1-(4′-isopropylphenyl)pyrrole-2-sulfonamide] | –
7 | 18100 | 8700 | Cc1noc(NS(=O)(=O)c2cccn2-c2ccccc2)c1Br [N-(4-Bromo-3-methyl-5-isoxazolyl)-1-(phenyl)pyrrole-2-sulfonamide] | –
8 | ~390 | 2620 | Cc1noc(NS(=O)(=O)c2cc(Cl)sc2Cl)c1Br [N-(4-Bromo-3-methyl-5-isoxazolyl)-2,5-dichlorothiophene-3-sulfonamide] | –
9 | 95.6 | 7800 | Cc1cc(S(=O)(=O)Nc2onc(C)c2Br)c(C)s1 [N-(4-Bromo-3-methyl-5-isoxazolyl)-2,5-dimethylthiophene-3-sulfonamide] | –

Continued, compound first:

Row | SMILES | IC50 [1, 5] [nM] | IC50 [2, 6] [nM] | further results
10 | Cc1ccc(/C=C/c2sccc2S(=O)(=O)Nc2onc(C)c2Br)cc1 | – | – | IC50 [1, 3]: 260 nM; IC50 [2, 4]: 413 nM
11 | Cc1noc(NS(=O)(=O)c2cc(Br)c(Cl)s2)c1Br [4-bromo-5-chloro-N-(4-Bromo-3-methyl-5-isoxazolyl)-thiophene-2-sulfonamide] | 359 | 2670 | –
12 | Cc1cc(NS(=O)(=O)c2ccc(-c3ccon3)s2)on1 [5-(3-isoxazolyl)-N-(3-methyl-5-isoxazolyl)-2-thiophenesulfonamide] | 5600 | 6700 | –
13 | Cc1noc(NS(=O)(=O)c2cccn2-c2ccc(-c3ccccc3)cc2)c1Br [(4-bromo-3-methyl-5-isoxazolyl)-1-(4′-biphenyl)pyrrole-2-sulfonamide] | 9170 | 7840 | –
14 | Cc1noc(NS(=O)(=O)c2ccsc2NC(=O)Nc2sccc2S(=O)(=O)Nc2onc(C)c2C)c1C [N,N′-bis{3-[3,4-dimethyl-5-isoxazolyl)aminosulfonyl]thien-2-yl}urea] | 1010 ± 1030 | 3700 ± 2700 | IC50 [1, 3]: 2700 nM; IC50 [2, 4]: 5900 nM
15 | Cc1noc(NS(=O)(=O)c2ccsc2C(=O)Oc2ccc3c(c2)OCO3)c1C [N-(3,4-dimenthyl-5-isoxazolyl)-2-[3,4-(methylenedioxy)phenox] [N-(3,4-dimenthyl-5-isoxazolyl)-2-[3,4-(methylenedioxy)phenoxycarbonyl]thiophene-3-sulfonamide] | – | – | IC50 [1, 3]: 6100 nM; IC50 [2, 4]: > 50000 nM
16 | Cc1noc(NS(=O)(=O)c2ccccc2-c2ccccc2)c1C [N-(3,4-dimethyl-5-isoxazolyl)-2-biphenylsulfonamide] | – | – | IC50 [1, 7]: 8.3 ± 1.4 nM; IC50 ([1]; read-out: IC50 for ETA receptors): ~8 nM; IC50 [2, 8]: 12800 nM
17 | Cc1noc(NS(=O)(=O)c2cccc(-c3ccccc3)c2)c1C [N-(3,4-dimethyl-5-isoxazolyl)-3-biphenylsulfonamide] | – | – | IC50 [1, 7]: > 30 nM; IC50 [2, 8]: 3480 nM; IC50 ([2]; read-out: IC50 for ETB receptors): ~3480 nM
18 | Cc1noc(NS(=O)(=O)c2ccc(-c3ccccc3)cc2)c1C [N-(3,4-dimethyl-5-isoxazolyl)-4-biphenylsufonamide] | – | – | IC50 [1, 7]: 9900 ± 1400 nM; IC50 ([1]; Table 2, † incubation at 24° C., read-out: ETA): 6300 nM; IC50 [2, 8]: 770 ± 320 nM; IC50 ([2]; Table 2, † incubation at 24° C., read-out: ETB): 150 nM
19 | Cc1noc(NS(=O)(=O)c2cc3ccccc3s2)c1C [N-(3,4-dimethyl-5-isoxazolyl)benzo[b]thiophene-2-sulfonamide] | 7220 | 11100 | –
20 | Cc1noc(NS(=O)(=O)c2cc3ccccc3o2)c1C [N-(3,4-dimethyl-5-isoxazolyl)benzofuran-2-sulfonamide] | 5220 | 38400 | –
21 | Cc1noc(NS(=O)(=O)c2ccn(-c3ccc(C(C)C)cc3)c2)c1Br [N-(4-Bromo-3-methyl-5-isoxazolyl) 1-(4′-isopropylphenyl)pyrrole-3-sulfonamide] | 838 | 211 | –
22 | Cc1noc(NS(=O)(=O)c2ccsc2C(=O)NCc2ccccc2)c1Br [N-(4-Bromo-3-methyl-5-isoxazolyl)-2-(N-benzylaminocarbonyl)thiophene-3-sulfonamide] | 13 | 12700 | –
23 | Cc1noc(NS(=O)(=O)c2ccsc2C(=O)O)c1Br [N-(4-Bromo-3-methyl-5-isoxazolyl)-2-(carboxyl)thiophene-3-sulfonamide] | ~600 | ~67000 | –
24 | COc1ccccc1NC(=O)c1sccc1S(=O)(=O)Nc1onc(C)c1Br [N-(4-Bromo-3-methyl-5-isoxazolyl)-2-[N-(2-methoxyphenyl)aminocarbonyl]thiophene-3-sulfonamide] | 11.6 | 13200 | –

Reference: US6683103B2, “Sulfonamides for treatment of endothelin-mediated disorders” (Texas Biotechnology Corporation, priority 1997, dated 2004)
